Target: T1, full-length human PKCι (Homo sapiens, UniProt P41743)
T1 construct: Recombinant, full-length human PKCι expressed in Sf21 insect cells is also commercially available; purchased; host or cells: Sf21 insect cells
T1 sequence (P41743 1-596): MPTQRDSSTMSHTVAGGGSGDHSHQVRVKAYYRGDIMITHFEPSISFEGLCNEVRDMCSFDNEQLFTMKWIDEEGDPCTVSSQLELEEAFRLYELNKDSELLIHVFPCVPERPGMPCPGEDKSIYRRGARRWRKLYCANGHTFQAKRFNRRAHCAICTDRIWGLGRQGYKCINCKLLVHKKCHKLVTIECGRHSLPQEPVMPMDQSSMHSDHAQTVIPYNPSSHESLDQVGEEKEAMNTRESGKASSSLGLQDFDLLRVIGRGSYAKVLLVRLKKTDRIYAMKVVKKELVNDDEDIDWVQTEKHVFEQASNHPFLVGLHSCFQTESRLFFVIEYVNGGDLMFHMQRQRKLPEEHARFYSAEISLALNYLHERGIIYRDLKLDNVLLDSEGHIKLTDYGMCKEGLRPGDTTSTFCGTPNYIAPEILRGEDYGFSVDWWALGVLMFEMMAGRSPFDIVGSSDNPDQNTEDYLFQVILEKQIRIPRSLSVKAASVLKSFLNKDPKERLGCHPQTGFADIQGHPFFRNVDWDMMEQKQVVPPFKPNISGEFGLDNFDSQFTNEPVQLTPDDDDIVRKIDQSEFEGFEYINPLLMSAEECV
Assay: PKCι IC50 IMAP assay, full-length PKCι at 150 μM ATP
Format: biochemical
Settings: read-out: IC50 in IMAP assay against full length PKCi at 150 μM ATP
Procedure, shortened: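 IMAP fluorescence polarisation (ex 485/em 530 nm) read-out; % inhibition set from no-compound (0%) and no-enzyme (100%) controls, IC50 from dose-response curve fit. Sf21-expressed full-length enzyme ~15 pM, 100 nM FAM peptide, ATP 150 μM (5× KM^APP), 60 min at RT.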

SMILES | IC50 [nM]
c1ccc(C[C@H]2CN(c3nc(-c4ccnc5[nH]ccc45)nc4cncc(C5CC5)c34)CCN2)cc1 [Example 1219, 4-((S)-3-Benzyl-piperazin-1-yl)-5-cyclopropyl-2-(1H-pyrrolo[2,3-b]pyridin-4-yl)-pyrido[3,4-d]pyrimidine] | < 100
COc1cncc2nc(-c3ccnc(Nc4ccccc4)c3)nc(N3CCC(CO)CC3)c12 [Example 244, {1-[5-Methoxy-2-(2-phenylamino-pyridin-4-yl)-pyrido[3,4-d]pyrimidin-4-yl]-piperidin-4-yl}-methanol] | 1000 to 10000
Fc1cncc(Nc2cc(-c3nc(N4CCNCC4)c4c(C5CC5)cncc4n3)ccn2)c1 [Example 535, [4-(5-Cyclopropyl-4-piperazin-1-yl-pyrido[3,4-d]pyrimidin-2-yl)-pyridin-2-yl]-(5-fluoro-pyridin-3-yl)-amine] | 100 to 1000
O=CN[C@H](CNc1nc(-c2ccncc2)nc2cnccc12)Cc1ccccc1 [Example 78, N—[(S)-1-Benzyl-2-(2-pyridin-4-yl-pyrido[3,4-d]pyrimidin-4-ylamino)-ethyl]-formamide] | 1000 to 10000
FC(F)(CNc1cc(-c2nc(N3CCNCC3)c3c(C4CC4)cncc3n2)ccn1)c1ccccc1 [Example 2166, [4-(5-Cyclopropyl-4-piperazin-1-yl-pyrido[3,4-d]pyrimidin-2-yl)-pyridin-2-yl]-(2,2-difluoro-2-phenyl-ethyl)-amine] | < 100
COc1cc(N2CCOCC2)ccc1Nc1cc(-c2nc(N[C@@H]3CCNC3)c3c(OC)cncc3n2)ccn1 [Example 360, {5-Methoxy-2-[2-(2-methoxy-4-morpholin-4-yl-phenylamino)-pyridin-4-yl]-pyrido[3,4-d]pyrimidin-4-yl}-(R)-pyrrolidin-3-yl-amine] | 100 to 1000
c1cc(-c2nc(N3CCNCC3)c3c(C4CC4)cncc3n2)cc(NC23CC(C2)C3)n1 [Example 700, Bicyclo[1.1.1]pent-1-yl-[4-(5-cyclopropyl-4-piperazin-1-yl-pyrido[3,4-d]pyrimidin-2-yl)-pyridin-2-yl]-amine] | < 100
C[C@H]1CN(c2nc(-c3ccnc(Nc4nc(F)c(F)cc4F)c3)nc3cncc(C4CCC4)c23)CCN1 [Example 808, {4-[5-Cyclobutyl-4-((S)-3-methyl-piperazin-1-yl)-pyrido[3,4-d]pyrimidin-2-yl]-pyridin-2-yl}-(3,5,6-trifluoro-pyridin-2-yl)-amine] | < 100
CC1(C)CN(c2nc(-c3ccnc(Nc4nc(F)c(F)cc4F)c3)nc3cncc(C4CC4)c23)CCN1 [Example 815, {4-[5-Cyclopropyl-4-(3,3-dimethyl-piperazin-1-yl)-pyrido[3,4-d]pyrimidin-2-yl]-pyridin-2-yl}-(3,5,6-trifluoro-pyridin-2-yl)-amine] | < 100
NC(=O)CN[C@H](CNc1nc(-c2ccncc2)nc2cnccc12)Cc1ccccc1 [Example 82, 2-{[(2S)-1-phenyl-3-{[2-(pyridin-4-yl)pyrido[3,4-d]pyrimidin-4-yl]amino}propan-2-yl]amino}acetamide] | 1000 to 10000
C[C@@H]1CN(c2nc(-c3ccnc(Nc4nc(F)c(F)cc4F)c3)nc3cncc(C4CC4)c23)C[C@H](C)N1 [Example 828, {4-[5-Cyclopropyl-4-((3R,5S)-3,5-dimethyl-piperazin-1-yl)-pyrido[3,4-d]pyrimidin-2-yl]-pyridin-2-yl}-(3,5,6-trifluoro-pyridin-2-yl)-amine] | < 100
COc1cncc2nc(-c3ccnc(Nc4cccc(CC(N)=O)c4)c3)nc(N[C@@H]3CCNC3)c12 [Example 324, 2-(3-{4-[5-Methoxy-4-((R)-pyrrolidin-3-ylamino)-pyrido[3,4-d]pyrimidin-2-yl]-pyridin-2-ylamino}-phenyl)-acetamide] | < 100
CP(C)(=O)c1ccc(Nc2cc(-c3nc(N4CCNCC4)c4c(C5CC5)cncc4n3)ccn2)cc1 [Example 549, [4-(5-Cyclopropyl-4-piperazin-1-yl-pyrido[3,4-d]pyrimidin-2-yl)-pyridin-2-yl]-[4-(dimethyl-phosphinoyl)-phenyl]-amine] | < 100
COc1cncc2nc(-c3ccnc(Nc4c(F)ccc(F)c4F)c3)nc(N3CCNCC3)c12 [Example 444, [4-(5-Methoxy-4-piperazin-1-yl-pyrido[3,4-d]pyrimidin-2-yl)-pyridin-2-yl]-(2,3,6-trifluoro-phenyl)-amine] | < 100
FC(F)(F)CC1CN(c2nc(-c3ccnc(Nc4ccccc4)c3)nc3cncc(C4CC4)c23)CCN1 (stereo not drawn) [Example 643, [4-{5-Cyclopropyl-4-[3-(2,2,2-trifluoro-ethyl)-piperazin-1-yl]-pyrido[3,4-d]pyrimidin-2-yl}-pyridin-2-yl)-phenyl-amine] | 1000 to 10000
CN[C@H](CNc1nc(-c2ccncc2)nc2cncc(OC)c12)Cc1ccccc1 [Example 41, [(2S)-1-{[5-methoxy-2-(pyridin-4-yl)-pyrido[3,4-d]-pyrimidin-4-yl]-amino}-3-phenylpropan-2-yl](methyl)amine] | < 100
CN(c1nc(-c2ccnc(Nc3ncc(F)cc3F)c2)nc2cncc(C3CCC3)c12)C1CCNCC1 [Example 2157, {5-Cyclobutyl-2-[2-(3,5-difluoro-pyridin-2-ylamino)-pyridin-4-yl]-pyrido[3,4-d]pyrimidin-4-yl}-methyl-piperidin-4-yl-amine] | < 100
c1cc(-c2nc(N3CCNCC3)c3c(C4CC4)cncc3n2)cc(N[C@@H]2C[C@H]3CC[C@@H]2C3)n1 [Example 824, (1R,2R,4S)-Bicyclo[2.2.1]hept-2-yl-[4-(5-cyclopropyl-4-piperazin-1-yl-pyrido[3,4-d]pyrimidin-2-yl)-pyridin-2-yl]-amine] | < 100
Fc1ccc(Nc2cc(-c3nc(N4CCNCC4)c4c(C5CC5)cncc4n3)ccn2)c(F)c1 [Example 651, [4-(5-Cyclopropyl-4-piperazin-1-yl-pyrido[3,4-d]pyrimidin-2-yl)-pyridin-2-yl]-(2,4-difluoro-phenyl)-amine] | < 100
CN1CCC(Nc2nc(-c3ccnc(Nc4c(F)cccc4F)c3)nc3cncc(C4CC4)c23)CC1 [Example 2084, {5-Cyclopropyl-2-[2-(2,6-difluoro-phenylamino)-pyridin-4-yl]-pyrido[3,4-d]pyrimidin-4-yl}-(1-methyl-piperidin-4-yl)-amine] | < 100
FC(F)(F)c1cc2c(-c3nc(N4CCNCC4)c4c(C5CC5)cnc(Cl)c4n3)ccnc2[nH]1 [Example 2071, 8-Chloro-5-cyclopropyl-4-piperazin-1-yl-2-(2-trifluoromethyl-1H-pyrrolo[2,3-b]pyridin-4-yl)-pyrido[3,4-d]pyrimidine] | < 100
N#Cc1ccnc(Nc2cc(-c3nc(N4CCC(O)CC4)c4c(C5CC5)cncc4n3)ccn2)c1 [Example 482, 2-{4-[5-Cyclopropyl-4-(4-hydroxy-piperidin-1-yl)-pyrido[3,4-d]pyrimidin-2-yl]-pyridin-2-ylamino}-isonicotinonitrile] | 100 to 1000
FC(F)(F)c1ccc(Nc2cc(-c3nc(N4CCNCC4)c4c(C5CC5)cncc4n3)ccn2)nc1 [Example 827, [4-(5-Cyclopropyl-4-piperazin-1-yl-pyrido[3,4-d]pyrimidin-2-yl)-pyridin-2-yl]-(5-trifluoromethyl-pyridin-2-yl)-amine] | < 100
CN(c1nc(-c2ccnc(Nc3ncc(F)cc3F)c2)nc2cncc(C3CC3)c12)C1CCNCC1 [Example 2095, {5-Cyclopropyl-2-[2-(3,5-difluoro-pyridin-2-ylamino)-pyridin-4-yl]-pyrido[3,4-d]pyrimidin-4-yl}-methyl-piperidin-4-yl-amine] | < 100
CS(=O)(=O)c1ccc(F)c(Nc2cc(-c3nc(N4CCNCC4)c4c(C5CC5)cncc4n3)ccn2)c1 [Example 556, [4-(5-Cyclopropyl-4-piperazin-1-yl-pyrido[3,4-d]pyrimidin-2-yl)-pyridin-2-yl]-(2-fluoro-5-methanesulfonyl-phenyl)-amine] | < 100
Clc1nccc2c(N3CCNCC3)nc(-c3ccncc3)nc12 [Example 32, 1-[8-chloro-2-(pyridin-4-yl)-pyrido[3,4-d]-pyrimidin-4-yl]-piperazine] | 100 to 1000
NC1CCN(c2nc(-c3ccnc(Nc4c(F)cccc4F)c3)nc3cncc(C4CC4)c23)CC1 [Example 690, {4-[4-(4-Amino-piperidin-1-yl)-5-cyclopropyl-pyrido[3,4-d]pyrimidin-2-yl]-pyridin-2-yl}-(2,6-difluoro-phenyl)-amine] | < 100
c1ccc2cc(Nc3cc(-c4nc(N5CCNCC5)c5c(C6CC6)cncc5n4)ccn3)ncc2c1 [Example 2060, [4-(5-Cyclopropyl-4-piperazin-1-yl-pyrido[3,4-d]pyrimidin-2-yl)-pyridin-2-yl]-iso[D4],[D3]uinolin-3-yl-amine] | < 100
Fc1cc(F)c(Nc2cc(-c3nc(N4CCNCC4)c4c(C5CC5)cncc4n3)ccn2)nc1F [Example 680] | < 100
COc1cncc2nc(-c3ccnc(Nc4c(F)cccc4F)c3)nc(N3CCNCC3)c12 [Example 421, (2,6-Difluoro-phenyl)-[4-(5-methoxy-4-piperazin-1-yl-pyrido[3,4-d]pyrimidin-2-yl)-pyridin-2-yl]-amine] | < 100

— patent US9914730B2, “Azaquinazoline inhibitors of Atypical protein Kinase C” (Ignyta, Inc., priority 2012, dated 2018)
